{"source": "patent US20240285773A1", "about": "“METHODS OF TREATING MYELODYSPLASTIC SYNDROME AND MONITORING THE TREATMENT” (Geron Corporation, priority 2023, published 2024)", "test_system": "RBC transfusion-dependent patients with IPSS low or intermediate-1 risk MDS", "assay": "Phase 3 trial: hematologic improvement-erythroid (HI-E) and hemoglobin", "assay_type": "in vivo, human", "source_text": "The primary end point was rate of RBC-TI for 8 consecutive weeks or longer. Key secondary end points included rate of 24-week TI, duration of TI, and the rate of hematologic response (hematologic improvement-erythroid [HI-E], based on modified International Working Group [IWG] 2006 criteria, and HI-E per revised IWG 2018). Additional secondary end points included relative change in number of RBC transfusions received by patients, relative change in hemoglobin, and safety. The changes in mutational status and in patient-reported fatigue over time (assessed by the Functional Assessment of Chronic Illness Therapy [FACIT] Fatigue Scale) were exploratory end points. Subgroup analyses were performed including baseline presence or absence of RS, prior RBC transfusion burden (≥4 to ≤6 or >6 RBC units/8-weeks during a 16-week period prior to randomization), and low or intermediate-1 IPSS risk categories. Subgroup analyses were also performed, including baseline mutation status as well as telomerase activity (TA), telomere lengths (TL), and human telomerase reverse transcriptase (hTERT) levels. Peripheral blood hematology, bone marrow evaluation, mutation assessment, and cytogenetic evaluation were performed centrally and responses assessed by an independent review committee (IRC). Rate of 1-year RBC-TI was reported as a post hoc analysis.\nKey Secondary End Point Rate of hematologic improvement, including HI-E: per modified IWG 2006.\nChanges over time in transfusion units and hemoglobin levels were compared by a mixed model for repeated measures with weeks since randomization, prior transfusion burden, minimum hemoglobin in the 8 weeks prior to first dose (for hemoglobin), and treatment arm as the independent variables with autoregressive moving average covariance structure.", "note": "“And” between values parts separate entries of the source, which are not always exact repeats. Equal values may be shown once. [nps] = N3'→P5' thiophosphoramidate linkage; {Palm} = palmitoyl lipid", "data": [{"substance": "Imetelstat: first-in-class telomerase inhibitor; synthetic lipid-conjugated 13-mer oligonucleotide N3′→P5′-thiophosphoramidate (TAGGGTTAGACAA; all [nps], 5' {Palm}, sugars by position and methylation of C not given here)", "values": [{"measurement": "Median hemoglobin peak", "setting": "8-week TI responders", "value": 11.3, "unit": "g/dL"}, {"measurement": "Median hemoglobin increase from pretreatment to peak", "setting": "8-week TI responders, during TI period", "value": "3.55 g/dL and 3.6 g/dL"}, {"measurement": "Major HI-E response, % difference vs placebo", "setting": "HTB subjects", "value": 30.9, "unit": "%"}, {"measurement": "Minor HI-E response, % difference vs placebo", "setting": "HTB subjects", "value": 34.8, "unit": "%"}, {"measurement": "Major HI-E response (16-week RBC-TI), patients", "setting": "HTB subjects (97)", "value": "30 No. of patients"}, {"measurement": "Minor HI-E response (50% RBC units reduction in 16 weeks), patients", "setting": "HTB subjects (97)", "value": "43 No. of patients"}, {"measurement": "HI-E response (16-week RBC-TI), % difference vs placebo", "setting": "LTB subjects", "value": 11.1, "unit": "%"}, {"measurement": "HI-E response (16-week RBC-TI), patients", "setting": "LTB subjects (21)", "value": "7 No. of patients"}, {"measurement": "HI-E per IWG 2006, patients", "setting": "N=118", "value": 75, "unit": "n"}, {"measurement": "HI-E per IWG 2018, patients", "setting": "N=118", "value": 50, "unit": "n"}, {"measurement": "Increase in hemoglobin ≥1.5 g/dL for ≥8 wk, patients", "setting": "N=118", "value": 40, "unit": "n"}, {"measurement": "Transfusion reduction by 50%/16 weeks rate", "setting": "N=118", "value": 43.2, "unit": "%"}, {"measurement": "Transfusion reduction by 50%/16 weeks, patients", "setting": "N=118", "value": 51, "unit": "n"}, {"measurement": "Transfusion reduction by ≥4 units/8 wk, patients", "setting": "N=118", "value": 71, "unit": "n"}, {"measurement": "HI-E per IWG 2018 rate", "setting": "N=118, listed as imetelstat", "value": "42% and 42.4%"}, {"measurement": "Increase in hemoglobin ≥1.5 g/dL for ≥8 wk rate", "setting": "N=118, listed as imetelstat", "value": 34, "unit": "%"}, {"measurement": "HI-E IWG 2006, % difference vs placebo", "setting": "in vivo", "value": "11.9%,"}, {"measurement": "HI-E IWG 2018, % difference vs placebo", "setting": "in vivo", "value": "29.0%,"}, {"measurement": "Increase in hemoglobin ≥1.5 g/dL for ≥8 wk, % difference vs placebo", "setting": "in vivo", "value": 23.9, "unit": "%"}, {"measurement": "Transfusion reduction by ≥4 units/8 wk, % difference vs placebo", "setting": "in vivo", "value": "10.2%,"}, {"measurement": "Median increase in hemoglobin during the longest TI interval", "setting": "≥1-year TI responders", "value": "5.2 g/dL and 5.18 g/dL"}]}]}
